Bridge positions count the residues as written; N and C are the ends. Peptide text beside a SMILES is read from it.
Columns and labels:
[1] = molecular target: Sodium channel protein type 4 subunit alpha (Homo sapiens, UniProt P35499); experiment: Inhibition of human NaV1.4 at -140 mV holding potential by whole-cell patch clamp assay
[2] = molecular target: Sodium channel protein type 5 subunit alpha (Homo sapiens, UniProt Q14524); experiment: Inhibition of human NaV1.5 at -140 mV holding potential by whole-cell patch clamp assay
[3] = molecular target: Sodium channel protein type 9 subunit alpha (Homo sapiens, UniProt Q15858); experiment: Inhibition of human NaV1.7 at -140 mV holding potential by whole-cell patch clamp assay
Sequence of Sodium channel protein type 9 subunit alpha (Q15858 whole entry): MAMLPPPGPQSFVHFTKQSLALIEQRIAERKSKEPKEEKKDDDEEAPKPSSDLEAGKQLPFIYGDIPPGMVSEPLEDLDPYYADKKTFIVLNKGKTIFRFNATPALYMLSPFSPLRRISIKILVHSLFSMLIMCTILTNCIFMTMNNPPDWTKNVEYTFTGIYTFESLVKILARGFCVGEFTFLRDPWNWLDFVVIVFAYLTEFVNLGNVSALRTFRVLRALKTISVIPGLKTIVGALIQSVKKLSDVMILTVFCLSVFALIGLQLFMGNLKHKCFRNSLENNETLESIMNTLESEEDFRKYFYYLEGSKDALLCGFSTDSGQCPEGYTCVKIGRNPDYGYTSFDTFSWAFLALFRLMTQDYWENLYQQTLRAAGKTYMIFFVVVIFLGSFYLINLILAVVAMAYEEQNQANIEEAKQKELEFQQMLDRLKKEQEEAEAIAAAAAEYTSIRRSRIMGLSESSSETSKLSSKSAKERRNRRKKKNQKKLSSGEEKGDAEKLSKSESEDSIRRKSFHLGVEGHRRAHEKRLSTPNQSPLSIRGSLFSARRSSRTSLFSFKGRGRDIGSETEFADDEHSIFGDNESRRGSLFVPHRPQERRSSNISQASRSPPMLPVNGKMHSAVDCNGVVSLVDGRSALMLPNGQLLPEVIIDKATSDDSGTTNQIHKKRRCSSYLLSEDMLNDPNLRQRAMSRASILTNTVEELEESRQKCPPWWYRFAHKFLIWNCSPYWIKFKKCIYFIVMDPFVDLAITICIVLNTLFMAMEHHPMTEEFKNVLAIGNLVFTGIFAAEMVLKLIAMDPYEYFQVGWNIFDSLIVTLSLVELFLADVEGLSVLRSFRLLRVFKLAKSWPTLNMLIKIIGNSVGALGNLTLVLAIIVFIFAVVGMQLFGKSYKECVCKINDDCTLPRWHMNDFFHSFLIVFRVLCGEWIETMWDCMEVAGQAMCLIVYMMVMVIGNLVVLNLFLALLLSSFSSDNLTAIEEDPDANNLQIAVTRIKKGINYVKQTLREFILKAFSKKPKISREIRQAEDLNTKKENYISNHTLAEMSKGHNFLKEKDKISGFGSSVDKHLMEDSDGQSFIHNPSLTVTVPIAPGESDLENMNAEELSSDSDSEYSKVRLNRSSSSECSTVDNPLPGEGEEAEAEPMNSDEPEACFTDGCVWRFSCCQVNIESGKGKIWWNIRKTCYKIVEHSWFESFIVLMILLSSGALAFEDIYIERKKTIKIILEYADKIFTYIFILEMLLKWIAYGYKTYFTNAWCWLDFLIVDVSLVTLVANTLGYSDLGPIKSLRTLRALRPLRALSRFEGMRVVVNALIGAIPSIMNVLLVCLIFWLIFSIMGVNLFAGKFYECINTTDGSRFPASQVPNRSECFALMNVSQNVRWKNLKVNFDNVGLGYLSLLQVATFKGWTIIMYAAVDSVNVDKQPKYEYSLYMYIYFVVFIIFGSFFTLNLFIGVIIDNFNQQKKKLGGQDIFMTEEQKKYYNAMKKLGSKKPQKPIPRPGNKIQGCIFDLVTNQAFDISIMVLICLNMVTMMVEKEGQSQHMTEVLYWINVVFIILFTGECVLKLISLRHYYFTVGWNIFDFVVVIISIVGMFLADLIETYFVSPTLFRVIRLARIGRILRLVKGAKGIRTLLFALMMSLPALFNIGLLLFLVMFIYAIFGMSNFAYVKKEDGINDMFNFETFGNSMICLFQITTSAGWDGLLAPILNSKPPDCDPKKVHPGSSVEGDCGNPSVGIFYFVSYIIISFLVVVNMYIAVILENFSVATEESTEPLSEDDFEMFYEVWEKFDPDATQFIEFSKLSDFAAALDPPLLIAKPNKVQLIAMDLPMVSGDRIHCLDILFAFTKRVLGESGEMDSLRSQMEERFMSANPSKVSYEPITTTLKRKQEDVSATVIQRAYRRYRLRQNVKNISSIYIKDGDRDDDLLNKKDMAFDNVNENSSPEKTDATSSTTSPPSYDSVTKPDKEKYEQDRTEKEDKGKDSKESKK

Sequence of Sodium channel protein type 4 subunit alpha (P35499 whole entry): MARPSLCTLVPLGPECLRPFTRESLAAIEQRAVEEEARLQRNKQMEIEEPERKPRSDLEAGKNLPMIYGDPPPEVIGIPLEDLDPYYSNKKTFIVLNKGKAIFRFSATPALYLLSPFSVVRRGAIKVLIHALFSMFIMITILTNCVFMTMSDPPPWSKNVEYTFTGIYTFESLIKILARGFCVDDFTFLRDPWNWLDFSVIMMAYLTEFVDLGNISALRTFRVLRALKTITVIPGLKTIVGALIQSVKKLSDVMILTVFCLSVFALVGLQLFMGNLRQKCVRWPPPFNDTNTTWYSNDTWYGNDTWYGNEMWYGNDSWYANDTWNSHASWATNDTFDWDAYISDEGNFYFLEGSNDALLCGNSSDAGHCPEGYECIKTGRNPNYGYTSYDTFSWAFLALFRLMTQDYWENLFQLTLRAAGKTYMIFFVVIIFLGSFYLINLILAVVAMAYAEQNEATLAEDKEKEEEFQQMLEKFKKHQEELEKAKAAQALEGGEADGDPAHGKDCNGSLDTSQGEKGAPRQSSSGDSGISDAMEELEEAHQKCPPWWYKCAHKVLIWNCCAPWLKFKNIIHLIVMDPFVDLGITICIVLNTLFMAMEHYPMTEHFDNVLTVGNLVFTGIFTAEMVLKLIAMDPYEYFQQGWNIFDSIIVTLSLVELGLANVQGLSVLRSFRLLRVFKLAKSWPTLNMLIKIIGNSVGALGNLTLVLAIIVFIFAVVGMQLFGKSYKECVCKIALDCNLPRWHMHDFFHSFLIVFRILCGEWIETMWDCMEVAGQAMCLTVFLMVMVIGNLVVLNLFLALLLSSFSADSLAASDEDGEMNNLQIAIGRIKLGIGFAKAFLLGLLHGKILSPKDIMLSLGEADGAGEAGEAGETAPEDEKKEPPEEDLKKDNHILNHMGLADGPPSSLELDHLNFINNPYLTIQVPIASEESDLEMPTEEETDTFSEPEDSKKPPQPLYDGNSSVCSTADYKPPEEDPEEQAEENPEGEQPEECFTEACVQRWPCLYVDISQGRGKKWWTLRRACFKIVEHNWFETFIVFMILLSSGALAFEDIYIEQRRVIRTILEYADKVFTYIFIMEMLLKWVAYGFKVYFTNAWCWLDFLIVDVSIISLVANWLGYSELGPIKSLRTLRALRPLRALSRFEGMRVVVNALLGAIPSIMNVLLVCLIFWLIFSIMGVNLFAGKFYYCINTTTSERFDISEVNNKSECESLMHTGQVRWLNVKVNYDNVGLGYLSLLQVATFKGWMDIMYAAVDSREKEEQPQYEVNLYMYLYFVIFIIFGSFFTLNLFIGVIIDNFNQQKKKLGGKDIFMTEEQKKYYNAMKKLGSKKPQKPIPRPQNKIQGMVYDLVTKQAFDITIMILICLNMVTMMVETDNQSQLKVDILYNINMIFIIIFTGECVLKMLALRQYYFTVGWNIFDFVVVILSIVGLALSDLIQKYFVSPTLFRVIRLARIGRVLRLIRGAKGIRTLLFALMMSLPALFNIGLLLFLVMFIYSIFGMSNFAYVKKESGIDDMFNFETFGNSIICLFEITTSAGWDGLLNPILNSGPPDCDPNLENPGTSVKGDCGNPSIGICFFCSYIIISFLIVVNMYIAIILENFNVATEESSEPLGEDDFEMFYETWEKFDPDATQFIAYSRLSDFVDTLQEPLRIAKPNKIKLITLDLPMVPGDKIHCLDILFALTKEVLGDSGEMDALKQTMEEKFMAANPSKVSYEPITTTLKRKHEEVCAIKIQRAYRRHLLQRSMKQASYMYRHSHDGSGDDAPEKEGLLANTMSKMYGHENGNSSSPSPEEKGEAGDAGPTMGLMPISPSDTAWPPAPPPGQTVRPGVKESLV

| SMILES | IC50 [1] | IC50 [2] | IC50 [3] |
| --- | --- | --- | --- |
| CC[C@H](C)[C@H](NC(=O)[C@H](CCC(N)=O)NC(=O)[C@H](Cc1ccc(O)cc1)NC(=O)[C@H](CCCCN)NC(=O)[C@@H]1CSSC[C@@H]2NC(=O)[C@H](CCC(N)=O)NC(=O)[C@H](CC(=O)O)NC(=O)[C@H](CC(N)=O)NC(=O)[C@H](CO)NC(=O)[C@@H]3CCCN3C(=O)[C@H](CC(N)=O)NC(=O)[C@@H]3CSSC[C@H](NC(=O)[C@H](C(C)C)NC(=O)[C@H](CC(C)C)NC(=O)[C@H](CCCCN)NC(=O)[C@H](CO)NC(=O)[C@H](CO)NC(=O)[C@H](CCCCN)NC(=O)[C@H](CSSC[C@H](NC(=O)[C@@H](N)CCC(=O)O)C(=O)N[C@@H](CC(C)C)C(=O)N[C@@H](CCC(=O)O)C(=O)N[C@@H]([C@@H](C)CC)C(=O)N[C@@H](Cc4ccccc4)C(=O)N[C@@H](CCCCN)C(=O)N[C@@H](C)C(=O)N3)NC2=O)C(=O)N[C@@H](CO)C(=O)N[C@@H](CCCNC(=N)N)C(=O)N[C@@H](CCCCN)C(=O)N[C@@H]([C@@H](C)O)C(=O)N[C@@H](CCCNC(=N)N)C(=O)N[C@@H](Cc2c[nH]c3ccccc23)C(=O)N1)C(=O)O | 3900 nM | 25 µM | 33 nM |
| N=C(N)NCCC[C@@H]1NC(=O)[C@H](CO)NC(=O)[C@H](Cc2c[nH]cn2)NC(=O)[C@H](CC(=O)O)NC(=O)[C@H](CCCNC(=N)N)NC(=O)[C@H]2CSSC[C@@H]3NC(=O)[C@@H](N)CSSC[C@H](NC1=O)C(=O)N[C@H](C(=O)O)CSSC[C@H](NC(=O)[C@H](CC(N)=O)NC3=O)C(=O)N[C@@H](CO)C(=O)N[C@@H](CO)C(=O)N[C@@H](CCCCN)C(=O)N[C@@H](Cc1c[nH]c3ccccc13)C(=O)N2 | 20 nM | > 25 µM | 460 nM |
| CSCC[C@@H]1NC(=O)CNC(=O)[C@H](CCC(=O)O)NC(=O)[C@@H]2CSSC[C@H](NC(=O)[C@@H](N)Cc3ccc(O)cc3)C(=O)N[C@@H](CCC(N)=O)C(=O)N[C@@H](CCCCN)C(=O)N[C@@H](Cc3c[nH]c4ccccc34)C(=O)N[C@@H](CCSC)C(=O)N[C@@H](Cc3c[nH]c4ccccc34)C(=O)N[C@@H]([C@@H](C)O)C(=O)N[C@H]3CSSC[C@H](NC(=O)[C@H](C(C)C)NC1=O)C(=O)N[C@@H](CCCNC(=N)N)C(=O)N[C@@H](CC(C)C)C(=O)N[C@@H](Cc1c[nH]c4ccccc14)C(=O)N[C@H](C(=O)N[C@@H](CCCCN)C(=O)N[C@@H](CCCCN)C(=O)N[C@@H](CCCCN)C(=O)N[C@@H](CC(C)C)C(=O)N[C@@H](Cc1c[nH]c4ccccc14)C(=O)O)CSSC[C@H](NC(=O)[C@H](CCCCN)NC(=O)[C@H](CCCNC(=N)N)NC(=O)[C@H](CCC(=O)O)NC(=O)[C@H](CO)NC(=O)[C@H](CC(=O)O)NC3=O)C(=O)N2 | 30 nM | 0.09 µM | – |
| CC[C@H](C)[C@@H]1NC(=O)[C@@H]2CSSC[C@@H]3NC(=O)[C@H](C(C)C)NC(=O)[C@H](CC(C)C)NC(=O)[C@H](CC(N)=O)NC(=O)[C@@H]4CCCN4C(=O)[C@H](CCCNC(=N)N)NC(=O)[C@H](CSSC[C@H](NC(=O)[C@@H](N)CC(=O)O)C(=O)N[C@@H](CC(C)C)C(=O)NCC(=O)N[C@@H](Cc4ccc(I)cc4)C(=O)N[C@@H](CCSC)C(=O)N[C@@H](CCCNC(=N)N)C(=O)N[C@@H](CCCCN)C(=O)N2)NC(=O)[C@H](CSSC[C@@H](C(=O)N[C@@H](CCCCN)C(=O)N[C@@H](Cc2ccc(O)cc2)C(=O)N[C@H](C(=O)N[C@@H](Cc2ccccc2)C(N)=O)C(C)C)NC(=O)[C@H](Cc2c[nH]c4ccccc24)NC(=O)[C@H](CCCCN)NC(=O)[C@H](Cc2cnc[nH]2)NC(=O)[C@H]([C@@H](C)O)NC(=O)[C@H](CCCNC(=N)N)NC(=O)[C@H](CO)NC3=O)NC(=O)[C@H](CCCCN)NC(=O)[C@H](CC(=O)O)NC(=O)[C@H](CC(N)=O)NC(=O)[C@H](CC(=O)O)NC(=O)[C@@H]2CCCN2C1=O | – | > 10 µM | 236 nM |
| CC[C@H](C)[C@@H]1NC(=O)[C@@H]2CSSC[C@@H]3NC(=O)[C@H](C(C)C)NC(=O)[C@H](CC(C)C)NC(=O)[C@H](CC(N)=O)NC(=O)[C@@H]4CCCN4C(=O)[C@H](CCCNC(=N)N)NC(=O)[C@H](CSSC[C@H](NC(=O)[C@@H](N)CC(=O)O)C(=O)N[C@@H](CC(C)C)C(=O)NCC(=O)N[C@@H](Cc4ccccc4)C(=O)N[C@@H](Cc4ccc(O)cc4)C(=O)N[C@@H](CCCNC(=N)N)C(=O)N[C@@H](CCCCN)C(=O)N2)NC(=O)[C@H](CSSC[C@@H](C(=O)N[C@@H](CCCCN)C(=O)N[C@@H](Cc2ccc(O)cc2)C(=O)N[C@H](C(=O)N[C@@H](Cc2ccccc2)C(N)=O)C(C)C)NC(=O)[C@H](Cc2c[nH]c4ccccc24)NC(=O)[C@H](CCCCN)NC(=O)[C@H](Cc2cnc[nH]2)NC(=O)[C@H]([C@@H](C)O)NC(=O)[C@H](CCCNC(=N)N)NC(=O)[C@H](CO)NC3=O)NC(=O)[C@H](CCCCN)NC(=O)[C@H](CC(=O)O)NC(=O)[C@H](CC(N)=O)NC(=O)[C@H](CC(=O)O)NC(=O)[C@@H]2CCCN2C1=O (H-DCLGFYRKCIPDNDKCCRPNLVCSRTHKWCKYVF-NH2; disulfide 2-17, 9-23, 16-30) | – | > 10 µM | 63 nM |
| CC[C@H](C)[C@@H]1NC(=O)[C@@H]2CSSC[C@@H]3NC(=O)[C@H](C(C)C)NC(=O)[C@H](CC(C)C)NC(=O)[C@H](CC(N)=O)NC(=O)[C@@H]4CCCN4C(=O)[C@H](CCCNC(=N)N)NC(=O)[C@H](CSSC[C@H](NC(=O)[C@@H](N)CC(=O)O)C(=O)N[C@@H](CC(C)C)C(=O)NCC(=O)N[C@@H](Cc4ccccc4)C(=O)N[C@@H](CCSC)C(=O)N[C@@H](CCCNC(=N)N)C(=O)N[C@@H](CCCCN)C(=O)N2)NC(=O)[C@H](CSSC[C@@H](C(=O)N[C@@H](CCCCN)C(=O)N[C@@H](Cc2ccc(O)cc2)C(=O)N[C@H](C(=O)N[C@@H](Cc2ccccc2)C(N)=O)C(C)C)NC(=O)[C@H](Cc2c[nH]c4ccccc24)NC(=O)[C@H](CCC(=O)O)NC(=O)[C@H](Cc2cnc[nH]2)NC(=O)[C@H]([C@@H](C)O)NC(=O)[C@H](CCCNC(=N)N)NC(=O)[C@H](CO)NC3=O)NC(=O)[C@H](CCCCN)NC(=O)[C@H](CC(=O)O)NC(=O)[C@H](CC(N)=O)NC(=O)[C@H](CC(=O)O)NC(=O)[C@@H]2CCCN2C1=O (H-DCLGFMRKCIPDNDKCCRPNLVCSRTHEWCKYVF-NH2; disulfide 2-17, 9-23, 16-30) | – | > 10 µM | 29 nM |
| CC[C@H](C)[C@@H]1NC(=O)[C@@H]2CSSC[C@@H]3NC(=O)[C@H](C(C)C)NC(=O)[C@H](CC(C)C)NC(=O)[C@H](CC(N)=O)NC(=O)[C@@H]4CCCN4C(=O)[C@H](CCCNC(=N)N)NC(=O)[C@H](CSSC[C@H](NC(=O)[C@@H](N)CC(=O)O)C(=O)N[C@@H](CC(C)C)C(=O)NCC(=O)N[C@@H](Cc4ccccc4)C(=O)N[C@@H](CC4CCCCC4)C(=O)N[C@@H](CCCNC(=N)N)C(=O)N[C@@H](CCCCN)C(=O)N2)NC(=O)[C@H](CSSC[C@@H](C(=O)N[C@@H](CCCCN)C(=O)N[C@@H](Cc2ccc(O)cc2)C(=O)N[C@H](C(=O)N[C@@H](Cc2ccccc2)C(N)=O)C(C)C)NC(=O)[C@H](Cc2c[nH]c4ccccc24)NC(=O)[C@H](CCCCN)NC(=O)[C@H](Cc2cnc[nH]2)NC(=O)[C@H]([C@@H](C)O)NC(=O)[C@H](CCCNC(=N)N)NC(=O)[C@H](CO)NC3=O)NC(=O)[C@H](CCCCN)NC(=O)[C@H](CC(=O)O)NC(=O)[C@H](CC(N)=O)NC(=O)[C@H](CC(=O)O)NC(=O)[C@@H]2CCCN2C1=O | – | 2.8 µM | 4 nM |
| CC[C@H](C)[C@@H]1NC(=O)[C@@H]2CSSC[C@@H]3NC(=O)[C@H](C(C)C)NC(=O)[C@H](CC(C)C)NC(=O)[C@H](CC(N)=O)NC(=O)[C@@H]4CCCN4C(=O)[C@H](CCCNC(=N)N)NC(=O)[C@H](CSSC[C@H](NC(=O)[C@@H](N)CC(=O)O)C(=O)N[C@@H](CC(C)C)C(=O)NCC(=O)N[C@@H](Cc4ccccc4)C(=O)N[C@@H](CCSC)C(=O)N[C@@H](CCCNC(=N)N)C(=O)N[C@@H](CCCCN)C(=O)N2)NC(=O)[C@H](CSSC[C@@H](C(=O)N[C@@H](CCCCN)C(=O)N[C@@H](Cc2ccc(O)cc2)C(=O)N[C@H](C(=O)N[C@@H](Cc2ccccc2)C(N)=O)C(C)C)NC(=O)[C@H](Cc2c[nH]c4ccccc24)NC(=O)[C@H](CCCCN)NC(=O)[C@H](Cc2cnc[nH]2)NC(=O)[C@H]([C@@H](C)O)NC(=O)[C@H](C)NC(=O)[C@H](CO)NC3=O)NC(=O)[C@H](CCCCN)NC(=O)[C@H](CC(=O)O)NC(=O)[C@H](CC(N)=O)NC(=O)[C@H](CC(=O)O)NC(=O)[C@@H]2CCCN2C1=O (H-DCLGFMRKCIPDNDKCCRPNLVCSATHKWCKYVF-NH2; disulfide 2-17, 9-23, 16-30) | – | > 5 µM | 330 nM |
| CC[C@H](C)[C@@H]1NC(=O)[C@@H]2CSSC[C@@H]3NC(=O)[C@H](C(C)C)NC(=O)[C@H](CC(C)C)NC(=O)[C@H](CC(N)=O)NC(=O)[C@@H]4CCCN4C(=O)[C@H](CCCNC(=N)N)NC(=O)[C@H](CSSC[C@H](NC(=O)[C@@H](N)CC(=O)O)C(=O)N[C@@H](CC(C)C)C(=O)NCC(=O)N[C@@H](Cc4ccccc4)C(=O)N[C@@H](CCSC)C(=O)N[C@@H](CCCNC(=N)N)C(=O)N[C@@H](C)C(=O)N2)NC(=O)[C@H](CSSC[C@@H](C(=O)N[C@@H](CCCCN)C(=O)N[C@@H](Cc2ccc(O)cc2)C(=O)N[C@H](C(=O)N[C@@H](Cc2ccccc2)C(N)=O)C(C)C)NC(=O)[C@H](Cc2c[nH]c4ccccc24)NC(=O)[C@H](CCCCN)NC(=O)[C@H](Cc2cnc[nH]2)NC(=O)[C@H]([C@@H](C)O)NC(=O)[C@H](CCCNC(=N)N)NC(=O)[C@H](CO)NC3=O)NC(=O)[C@H](CCCCN)NC(=O)[C@H](CC(=O)O)NC(=O)[C@H](CC(N)=O)NC(=O)[C@H](CC(=O)O)NC(=O)[C@@H]2CCCN2C1=O (H-DCLGFMRACIPDNDKCCRPNLVCSRTHKWCKYVF-NH2; disulfide 2-17, 9-23, 16-30) | – | > 5 µM | 500 nM |
